Source: the supplement of paper PMC11208160

assay: recombinant barcode read abundance after kanamycin selection (control-corrected) (log10(CPM+1)); higher = more efficient recombination; sequences stand for … in AGTGCAGAGAAAATCGGCCAGTTTTCTCTGCCTGCAGTCCGCATGCCGT…AGATTTATGCAGCGGACTGCCTTTCTCCCAAAGTGATAAACCGGACAGTATCATGGACCGGTTTTCCCGGTAATCCGTATTTGCAAGGTTGGTTTCACT; site = the 11-nt target
Summary of the method: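 Values are log10(CPM+1) from a pooled E. coli screen of targets paired with IS621 bridge RNA target-binding loops. Recombination efficiency here means counts per million of recombinant-junction barcodes, averaged and control-corrected. Plates were chloramphenicol/ampicillin LB agar for the control and chloramphenicol/ampicillin/kanamycin with 0.1 mM IPTG, two replicates each.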
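Further: IS621 recombinase and bridge RNA in Escherichia coli cells.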

| Sequence | recombinant barcode read abundance (log10) |
| --- | --- |
| TCGAGGCCTTGGGTTCTAACCTGTTGCTA (site CATCCATCTAT) | 0.162 |
| ACGATTCCTTGGGTTCTAACCTGTTGCCT (site AAGATTCCTAG) | 0.132 |
| CCAGCTGCTTGGGTTCTAACCTGTTGCCT (site GTGCGCTCTGC) | 0.137 |
| TCGCACACTTGGGTTCTAACCTGTTGCCT (site TCGCACACTAG) | 0.622 |
| CTCTGCTCTTGGGTTCTAACCTGTTGCTC (site GCTGAGGCTTG) | 0 |
| CGAGTGACTTGGGTTCTAACCTGTTGCCA (site CGAGTGACTTG) | 0.906 |
| TTCAAGTCTTGGGTTCTAACCTGTTGCGT (site TTCAACTCTAC) | 0.0281 |
| CTCTCATCTTGGGTTCTAACCTGTTGCTT (site CTCTCATCTAG) | 0.232 |
| AAGCCTACTTGGGTTCTAACCTGTTGCTA (site AAGCCTACTTA) | 1.27 |
| TACTGGGCTTGGGTTCTAACCTGTTGCTG (site TACTGGGCTCC) | 0.0895 |
| CGGACGTCTTGGGTTCTAACCTGTTGCCT (site CGGACGGCTAG) | 0.101 |
| GAGGGTTCTTGGGTTCTAACCTGTTGCAT (site GAGGGTTCTAT) | 2.66 |
| CAGTGGCCTTGGGTTCTAACCTGTTGCCT (site CAGGGGCCTAG) | 0.234 |
| AGATGTACTTGGGTTCTAACCTGTTGCTG (site ACATGTACTCT) | 0.0665 |
| TTGACGGCTTGGGTTCTAACCTGTTGCCT (site CCATTCCCTTA) | 0.041 |
| TGGTGTGCTTGGGTTCTAACCTGTTGCCA (site TGGTGTGCTTG) | 0.267 |
| CCTCGGACTTGGGTTCTAACCTGTTGCAT (site CATCGTACTAT) | 0.0825 |
| ACGCTGGCTTGGGTTCTAACCTGTTGCCT (site ACTCTGGCTAG) | 0.0925 |
| AGGGGTCCTTGGGTTCTAACCTGTTGCAT (site AGGGGTCCTAT) | 2.72 |
| ATTGGATCTTGGGTTCTAACCTGTTGCCT (site ATTGGTTCTAG) | 0.205 |
| CCTAAACCTTGGGTTCTAACCTGTTGCGT (site CCTAATCCTAC) | 0.0605 |
| GCCCGATCTTGGGTTCTAACCTGTTGCCT (site GCCCAATCTAG) | 0.743 |

| Sequence | recombinant barcode read abundance (log10) |
| --- | --- |
| ATAGAGTCTTGGGTTCTAACCTGTTGCCG (site GCTCCTCCTAT) | 0.173 |
| GGCACGACTTGGGTTCTAACCTGTTGCCT (site GGCACTACTAG) | 0.0541 |
| CGTTCAACTTGGGTTCTAACCTGTTGCCT (site CGTTCAACTAG) | 0.0537 |
| GGCAGTCCTTGGGTTCTAACCTGTTGCTT (site GGCAGTCCTAA) | 0.336 |
| AACGCTTCTTGGGTTCTAACCTGTTGCCT (site ATCGCTTCTAG) | 0.0246 |
| CGTCACCCTTGGGTTCTAACCTGTTGCCT (site CGTCATCCTAG) | 0.126 |
| AATTGTTCTTGGGTTCTAACCTGTTGCCT (site AATTGTTCTAG) | 0.253 |
| GTCATACCTTGGGTTCTAACCTGTTGCCT (site GTCTTACCTAG) | 0.203 |
| CGTGGTCCTTGGGTTCTAACCTGTTGCCT (site CGTGGTCCTAA) | 0.0142 |
| GAGTGGCCTTGGGTTCTAACCTGTTGCCT (site GAGTGGCCTAG) | 0.346 |
| CGACGAACTTGGGTTCTAACCTGTTGCCT (site CGACGAACTAG) | 0.201 |
| CTAAGGTCTTGGGTTCTAACCTGTTGCTT (site CTAAGGTCTAG) | 0.186 |
| TAGAAGACTTGGGTTCTAACCTGTTGCTT (site TAGAAGACTTA) | 0.399 |
| CACTGGTCTTGGGTTCTAACCTGTTGCCT (site CACTGGTCTAG) | 1.12 |
| ACGCGAGCTTGGGTTCTAACCTGTTGCCG (site ACGCGAGCTCC) | 0.345 |
| TATAATACTTGGGTTCTAACCTGTTGCGG (site TAGAATACTCC) | 0.156 |
| CGCGTTCCTTGGGTTCTAACCTGTTGCCT (site CGCGCTCCTAG) | 0.608 |
| TAGTGTCCTTGGGTTCTAACCTGTTGCGT (site TAGTGTCCTAC) | 1.86 |
| CTTGGATCTTGGGTTCTAACCTGTTGCCT (site CTTGGAGCTAG) | 0.0716 |
| CCGCCTCCTTGGGTTCTAACCTGTTGCAT (site CGTCCTCCTAT) | 0.26 |
| TATCCGACTTGGGTTCTAACCTGTTGCCG (site TATCCGACTAG) | 0.224 |
| ACCTGTGCTTGGGTTCTAACCTGTTGCCT (site ATCTGTTCTAG) | 0.151 |

| Sequence | recombinant barcode read abundance (log10) |
| --- | --- |
| AGTCGACCTTGGGTTCTAACCTGTTGCCT (site AGTCGACCTAG) | 1.78 |
| TCAGCATCTTGGGTTCTAACCTGTTGCCT (site TCAGAATCTAG) | 0.0342 |
| CACTTATCTTGGGTTCTAACCTGTTGCCT (site CACTTACCTAG) | 0.308 |
| CAGCGTGCTTGGGTTCTAACCTGTTGCCT (site CAGCGTGCTAG) | 0.838 |
| GCCTGCCCTTGGGTTCTAACCTGTTGCTG (site TGGGTGACTAG) | 0.0502 |
| TAGAACTCTTGGGTTCTAACCTGTTGCCG (site TAGAACTCTTG) | 0.127 |
| TCACACTCTTGGGTTCTAACCTGTTGCCT (site TCGCACTCTAG) | 0.101 |
| CGTGCGTCTTGGGTTCTAACCTGTTGCCT (site GGTGCGTCTAG) | 0.38 |
| CGGTACACTTGGGTTCTAACCTGTTGCGG (site CGGAACACTCC) | 0.862 |
| GAGCTAGCTTGGGTTCTAACCTGTTGCGC (site GAGCTAGCTGC) | 2.29 |
| ATCGTTGCTTGGGTTCTAACCTGTTGCCT (site TTCGTTGCTAG) | 0.0404 |
| CGAGCTCCTTGGGTTCTAACCTGTTGCCT (site CGAGCTCCTAC) | 0.582 |
| TCTAGATCTTGGGTTCTAACCTGTTGCCT (site TCTAGAGCTAG) | 0.135 |
| TAGTGTGCTTGGGTTCTAACCTGTTGCCT (site TAGTGTACTAG) | 0.514 |
| GTTCCTCCTTGGGTTCTAACCTGTTGCCT (site GTTCCTCCTAG) | 0.823 |
| GTCTAATCTTGGGTTCTAACCTGTTGCCT (site GTCTGATCTAG) | 0.174 |
| TAGACTACTTGGGTTCTAACCTGTTGCTG (site TAGACTACTAA) | 0.0928 |
| GGGGCACCTTGGGTTCTAACCTGTTGCGT (site GGGGCACCTAA) | 1.16 |
| CTCCCTACTTGGGTTCTAACCTGTTGCAG (site CTCCCTACTCT) | 1.68 |
| CGTATCACTTGGGTTCTAACCTGTTGCCT (site CGTATCACTAG) | 0.0527 |
| GAGGCTCCTTGGGTTCTAACCTGTTGCCG (site GAGGCTCCTAG) | 0.113 |
| CCGGGTACTTGGGTTCTAACCTGTTGCCG (site CCGGGTACTCG) | 1.66 |

| Sequence | recombinant barcode read abundance (log10) |
| --- | --- |
| CTGTTGTCTTGGGTTCTAACCTGTTGCCA (site CTGTTGTCTTG) | 0.487 |
| GTGGGCCCTTGGGTTCTAACCTGTTGCCT (site GTATGCCCTAG) | 0.02 |
| GACCGTCCTTGGGTTCTAACCTGTTGCAT (site GACCGTCCTAC) | 0.479 |
| CACTGGTCTTGGGTTCTAACCTGTTGCCT (site CACTGTTCTAG) | 0.0874 |
| CCAGGAGCTTGGGTTCTAACCTGTTGCAG (site CCAGGAGCTCT) | 0.312 |
| ACAGCCTCTTGGGTTCTAACCTGTTGCCT (site ACAGGCTCTAG) | 0.156 |
| ATGCCCACTTGGGTTCTAACCTGTTGCCT (site ATGCCCACTAG) | 1.33 |
| GTCTACGCTTGGGTTCTAACCTGTTGCCA (site GTCTACGCTTG) | 0.253 |
| TGCGATACTTGGGTTCTAACCTGTTGCTT (site TGCGATACTAA) | 0.223 |
| TAGGGCACTTGGGTTCTAACCTGTTGCCG (site TAGGGCACTCG) | 1.58 |
| TTAGAGTCTTGGGTTCTAACCTGTTGCCT (site TTAGAGACTAG) | 0.103 |
| GAGCGATCTTGGGTTCTAACCTGTTGCGT (site GAGCGATCTAC) | 1.85 |
| CTAAATACTTGGGTTCTAACCTGTTGCTT (site CTAAATACTAA) | 0.383 |
| GGTCCTGCTTGGGTTCTAACCTGTTGCCT (site CGTCCTGCTAG) | 0.0632 |
| CAGAAGCCTTGGGTTCTAACCTGTTGCCT (site TAGAAGCCTAG) | 0.0644 |
| CTGGGCCCTTGGGTTCTAACCTGTTGCCT (site CTGAGCCCTAG) | 0.12 |
| AACGTACCTTGGGTTCTAACCTGTTGCCA (site GGTAATACTAT) | 0.0669 |
| AGAGAGACTTGGGTTCTAACCTGTTGCCT (site AGAGAGACTAG) | 2.43 |
| TTCTACTCTTGGGTTCTAACCTGTTGCCT (site CTCTACTCTAG) | 0.75 |
| CGTATCACTTGGGTTCTAACCTGTTGCCT (site CCGATCACTAG) | 0.0447 |
